According to patent publication US7244850B2, “Benzimidazole derivatives, compositions containing them, preparation thereof and uses thereof” (AstraZeneca AB, priority 2003, dated 2007):

Assays:
human CB1 receptor = biological target: T1, human CB1 receptor (Homo sapiens, UniProt P21554); assay: hCB1 receptor binding (3H-CP55,940 displacement); settings: hCB1 membranes, 3H-CP55,940 radioligand; Ki=IC50/(1+[rad]/Kd); read-out: Ki towards human CB1 receptors
T1 construct: purchased Receptor Biology
T1 sequence (P21554 whole entry): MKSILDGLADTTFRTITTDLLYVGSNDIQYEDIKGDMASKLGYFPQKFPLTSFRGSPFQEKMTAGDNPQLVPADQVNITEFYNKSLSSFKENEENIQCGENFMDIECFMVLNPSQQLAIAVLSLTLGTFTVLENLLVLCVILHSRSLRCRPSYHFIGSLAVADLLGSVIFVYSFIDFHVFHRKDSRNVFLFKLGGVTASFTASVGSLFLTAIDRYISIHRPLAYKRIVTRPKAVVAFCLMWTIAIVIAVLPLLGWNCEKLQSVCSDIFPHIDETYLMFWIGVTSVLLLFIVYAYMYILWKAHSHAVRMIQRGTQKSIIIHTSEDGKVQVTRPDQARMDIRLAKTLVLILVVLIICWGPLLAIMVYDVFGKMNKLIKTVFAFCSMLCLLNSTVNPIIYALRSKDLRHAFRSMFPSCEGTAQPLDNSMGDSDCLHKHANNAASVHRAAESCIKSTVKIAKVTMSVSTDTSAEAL
Description: (§1) Human CB1 receptor from Receptor Biology (hCB1) or human CB2 receptor from BioSignal (hCB2) membranes are thawed at 37° C., passed 3 times through a 25-gauge blunt-end needle, diluted in the cannabinoid binding buffer (50 mM Tris, 2.5 mM EDTA, 5 mM MgCl2, and 0.5 mg/mL BSA fatty acid free, pH 7.4) and aliquots containing the appropriate amount of protein are distributed in 96-well plates. The IC50 of the compounds of the invention at hCB1 and hCB2 are evaluated from 10-point dose-response curves done with ^3H-CP55,940 at 20000 to 25000 dpm per well (0.17-0.21 nM) in a final volume of 300 μl. The total and non-specific binding are determined in the absence and presence of 0.2 μM of HU210 respectively. The plates are vortexed and incubated for 60 minutes at room temperature, filtered through Unifilters GF/B (presoaked in 0.1% polyethyleneimine) with the Tomtec or Packard harvester using 3 mL of wash buffer (50 mM Tris, 5 mM MgCl2, 0.5 mg BSA pH 7.0). The filters are dried for 1 hour at 55° C. The radioactivity (cpm) is counted in a TopCount (Packard) after adding 65 μl/well of MS-20 scintillation liquid.
(§2) Based on the above assays, the dissociation constant (Ki) for a particular compound of the invention towards a particular receptor is determined using the following equation: Ki=IC50/(1+[rad]/Kd), […]

human CB2 receptor = biological target: T2, human CB2 receptor (Homo sapiens, UniProt P34972); assay: hCB2 receptor binding (3H-CP55,940 displacement)
T2 construct: purchased BioSignal
T2 sequence (P34972 whole entry): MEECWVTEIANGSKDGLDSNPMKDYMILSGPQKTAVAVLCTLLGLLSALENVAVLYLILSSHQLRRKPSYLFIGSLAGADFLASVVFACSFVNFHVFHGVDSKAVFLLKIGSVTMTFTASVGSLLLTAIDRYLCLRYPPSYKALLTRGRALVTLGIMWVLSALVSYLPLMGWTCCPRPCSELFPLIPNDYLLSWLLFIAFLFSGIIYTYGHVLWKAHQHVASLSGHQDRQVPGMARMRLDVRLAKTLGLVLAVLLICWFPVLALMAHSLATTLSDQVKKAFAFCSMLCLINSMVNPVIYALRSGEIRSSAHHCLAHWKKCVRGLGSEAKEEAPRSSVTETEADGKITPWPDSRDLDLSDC
Description: as §1, §2

In the case of `CC(C)(C)c1nc2cc(C(=O)N(CC(F)(F)F)CC(F)(F)F)ccc2n1CC1CCCCC1` [compound 1, 2-tert-Butyl-1-(cyclohexylmethyl)-N,N-bis(2,2,2-trifluoroethyl)1H-benzimidazole-5-carboxamide], the Ki (human CB1 receptor) is reported as ~34 nM and the Ki (human CB2 receptor) is reported as ~33 nM.
